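These data come from cells grown in 96-well plates and exposed to compound for 48 hours at five concentrations. GI50 marks 50% less growth.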 Activity calls are given as the source filed them. No stated cut-off is given here; in the data, active = GI50 up to about 1.1 µM and inactive = higher.
Key:
Assay in all cases: NCI-60 cell line screen, 48 h
HCC 2998 = test system: HCC 2998
OVCAR-8 = test system: OVCAR-8
NCI-H522 = test system: NCI-H522
OVCAR-3 = test system: OVCAR-3
A498 = test system: A498
U-251 = test system: U-251
BT-549 = test system: BT-549
RPMI-8226 = test system: RPMI-8226
MDA-MB-231 = test system: MDA-MB-231
Malme-3M = test system: Malme-3M
NCI-H23 = test system: NCI-H23
NCI-H226 = test system: NCI-H226
COLO 205 = test system: COLO 205
SK-OV-3 = test system: SK-OV-3
SK-MEL-5 = test system: SK-MEL-5
SF-268 = test system: SF-268
HT-29 = test system: HT-29
CCRF-CEM = test system: CCRF-CEM
SF-539 = test system: SF-539
HOP-92 = test system: HOP-92
ACHN = test system: ACHN
EKVX = test system: EKVX
HCT-116 = test system: HCT-116
UACC-62 = test system: UACC-62
SK-MEL-28 = test system: SK-MEL-28
786-0 = test system: 786-0
OVCAR-5 = test system: OVCAR-5
SK-MEL-2 = test system: SK-MEL-2
A549 = test system: A549
PC-3 = test system: PC-3
SW-620 = test system: SW-620
HOP-62 = test system: HOP-62
DU-145 = test system: DU-145
MDA-N = test system: MDA-N
SN12C = test system: SN12C
K562 = test system: K562
HL-60 = test system: HL-60
MOLT-4 = test system: MOLT-4
M14 = test system: M14
NCI-H460 = test system: NCI-H460
MCF7 = test system: MCF7
SR = test system: SR
Hs-578T = test system: Hs-578T
TK-10 = test system: TK-10
HCT-15 = test system: HCT-15
UO-31 = test system: UO-31
SF-295 = test system: SF-295
LOX IMVI = test system: LOX IMVI
T47D = test system: T47D
IGROV-1 = test system: IGROV-1
RXF 393 = test system: RXF 393
SNB-19 = test system: SNB-19
SNB-75 = test system: SNB-75
UACC-257 = test system: UACC-257
NCI/ADR-RES = test system: NCI/ADR-RES
OVCAR-4 = test system: OVCAR-4
KM12 = test system: KM12
CAKI-1 = test system: CAKI-1
MDA-MB-435 = test system: MDA-MB-435

Measured: GI50

OCC1OC(NCCNCCNC2OC(CO)C(O)C(O)C2O)C(O)C(O)C1O (centres undefined)
inactive: HCC 2998 > 100 µM | OVCAR-8 > 100 µM | NCI-H522 > 100 µM | OVCAR-3 > 100 µM | A498 > 100 µM | U-251 > 100 µM | BT-549 > 100 µM | RPMI-8226 > 100 µM | MDA-MB-231 > 100 µM | Malme-3M > 100 µM | NCI-H23 > 100 µM | NCI-H226 > 100 µM | COLO 205 > 100 µM | SK-OV-3 > 100 µM | SK-MEL-5 > 100 µM | SF-268 > 100 µM | HT-29 > 100 µM | CCRF-CEM > 100 µM | SF-539 > 100 µM | HOP-92 > 100 µM | ACHN > 100 µM | EKVX > 100 µM | HCT-116 > 100 µM | UACC-62 > 100 µM | SK-MEL-28 > 100 µM | 786-0 > 100 µM | OVCAR-5 > 100 µM | SK-MEL-2 > 100 µM | A549 > 100 µM | PC-3 > 100 µM | SW-620 > 100 µM | HOP-62 > 100 µM | DU-145 > 100 µM | MDA-N > 100 µM | SN12C > 100 µM | K562 > 100 µM | HL-60 > 100 µM | MOLT-4 > 100 µM | M14 > 100 µM | NCI-H460 > 100 µM | MCF7 > 100 µM | SR > 100 µM | Hs-578T > 100 µM | TK-10 > 100 µM | UO-31 > 100 µM | SF-295 > 100 µM | LOX IMVI > 100 µM | T47D > 100 µM | IGROV-1 > 100 µM | RXF 393 > 100 µM | SNB-19 > 100 µM | SNB-75 > 100 µM | UACC-257 > 100 µM | NCI/ADR-RES > 100 µM
> 100 µM: HCT-15

NCCN/C(=N\c1ccccc1)Nc1ccccc1
> 100 µM: HCT-15
inactive: HCC 2998 > 100 µM | OVCAR-8 > 100 µM | NCI-H522 68.4 µM | OVCAR-3 > 100 µM | U-251 > 100 µM | BT-549 > 100 µM | RPMI-8226 > 100 µM | MDA-MB-231 > 100 µM | Malme-3M > 100 µM | NCI-H23 > 100 µM | NCI-H226 > 100 µM | COLO 205 > 100 µM | SK-OV-3 > 100 µM | OVCAR-4 > 100 µM | SK-MEL-5 99.5 µM | SF-268 > 100 µM | HT-29 > 100 µM | CCRF-CEM > 100 µM | SF-539 70.8 µM | KM12 > 100 µM | EKVX > 100 µM | HCT-116 94.2 µM | UACC-62 > 100 µM | SK-MEL-28 > 100 µM | 786-0 > 100 µM | SK-MEL-2 > 100 µM | A549 > 100 µM | PC-3 55.6 µM | SW-620 > 100 µM | HOP-62 > 100 µM | CAKI-1 > 100 µM | DU-145 > 100 µM | MDA-N > 100 µM | SN12C > 100 µM | K562 > 100 µM | HL-60 > 100 µM | MOLT-4 > 100 µM | M14 > 100 µM | NCI-H460 > 100 µM | MCF7 > 100 µM | SR > 100 µM | Hs-578T > 100 µM | TK-10 > 100 µM | UO-31 > 100 µM | SF-295 > 100 µM | LOX IMVI 83.8 µM | T47D > 10 µM | IGROV-1 > 100 µM | MDA-MB-435 > 100 µM | RXF 393 24.3 µM | SNB-19 > 100 µM | SNB-75 72.6 µM | UACC-257 > 100 µM | NCI/ADR-RES > 100 µM

CCN(CC)C(=S)SNCCc1ccc(S(N)(=O)=O)cc1
16.8 µM: HCT-15
active: CCRF-CEM 0.169 µM | SR < 0.01 µM
inactive: HCC 2998 21.6 µM | OVCAR-8 12.6 µM | OVCAR-3 18.9 µM | A498 30.7 µM | U-251 15.5 µM | BT-549 16 µM | RPMI-8226 11.5 µM | MDA-MB-231 14.7 µM | Malme-3M 12 µM | NCI-H23 18.8 µM | NCI-H226 42.7 µM | COLO 205 29.2 µM | SK-OV-3 25.4 µM | OVCAR-4 14.4 µM | SK-MEL-5 11.2 µM | SF-268 15.6 µM | HT-29 10.2 µM | SF-539 14.1 µM | HOP-92 17.5 µM | ACHN 17.9 µM | KM12 16.6 µM | EKVX 20 µM | HCT-116 13.3 µM | UACC-62 16.9 µM | SK-MEL-28 9.23 µM | 786-0 14.7 µM | OVCAR-5 15.6 µM | SK-MEL-2 33.6 µM | A549 11.9 µM | PC-3 13.9 µM | SW-620 14.1 µM | HOP-62 12.2 µM | CAKI-1 14 µM | DU-145 14 µM | MDA-N 18.3 µM | SN12C 14.2 µM | K562 20 µM | M14 10.9 µM | NCI-H460 22.4 µM | Hs-578T 19.5 µM | TK-10 18.6 µM | UO-31 13.1 µM | SF-295 16.7 µM | LOX IMVI 8 µM | T47D 18.1 µM | MDA-MB-435 14.7 µM | RXF 393 7.57 µM | SNB-19 20 µM | SNB-75 13.9 µM | UACC-257 15.5 µM | NCI/ADR-RES 17.4 µM

CC(C)C1OC(=O)C=C1Sc1ccccc1 (centres undefined)
inactive: HCC 2998 > 100 µM | OVCAR-8 > 100 µM | NCI-H522 > 100 µM | OVCAR-3 > 100 µM | A498 > 100 µM | U-251 > 100 µM | BT-549 > 100 µM | RPMI-8226 > 100 µM | MDA-MB-231 > 100 µM | Malme-3M 80.7 µM | NCI-H226 > 100 µM | COLO 205 > 100 µM | SK-OV-3 > 100 µM | OVCAR-4 > 100 µM | SK-MEL-5 > 100 µM | SF-268 > 100 µM | HT-29 > 100 µM | CCRF-CEM > 100 µM | SF-539 > 100 µM | ACHN > 100 µM | KM12 > 100 µM | EKVX > 100 µM | HCT-116 > 100 µM | UACC-62 > 100 µM | SK-MEL-28 > 100 µM | 786-0 > 100 µM | OVCAR-5 > 100 µM | SK-MEL-2 > 100 µM | A549 > 100 µM | PC-3 > 100 µM | SW-620 > 100 µM | HOP-62 > 100 µM | CAKI-1 > 100 µM | DU-145 > 100 µM | MDA-N > 100 µM | SN12C > 100 µM | K562 > 100 µM | HL-60 > 100 µM | MOLT-4 > 100 µM | M14 > 100 µM | NCI-H460 > 100 µM | MCF7 > 100 µM | SR > 100 µM | Hs-578T > 100 µM | TK-10 > 100 µM | SF-295 > 100 µM | LOX IMVI > 100 µM | T47D > 100 µM | IGROV-1 > 100 µM | MDA-MB-435 > 100 µM | RXF 393 > 100 µM | SNB-19 > 100 µM | SNB-75 > 100 µM | UACC-257 > 100 µM
> 100 µM: HCT-15

From ChEMBL document CHEMBL1201862, “PubChem BioAssay data set” (2004)
